Among the data in PMC12959773 (Protein & Cell, 2025) are Kd and cystine uptake values, retold here.

The target of one experiment is T1, SLC7A11-SLC3A2 complex (Homo sapiens, UniProt Q9UPY5).
T1 construct: system xc-, heterodimeric light/heavy chain transporter; ectopically expressed in HEK293T cells; with Amino acid transporter heavy chain SLC3A2
T1 sequence (Q9UPY5 1-501): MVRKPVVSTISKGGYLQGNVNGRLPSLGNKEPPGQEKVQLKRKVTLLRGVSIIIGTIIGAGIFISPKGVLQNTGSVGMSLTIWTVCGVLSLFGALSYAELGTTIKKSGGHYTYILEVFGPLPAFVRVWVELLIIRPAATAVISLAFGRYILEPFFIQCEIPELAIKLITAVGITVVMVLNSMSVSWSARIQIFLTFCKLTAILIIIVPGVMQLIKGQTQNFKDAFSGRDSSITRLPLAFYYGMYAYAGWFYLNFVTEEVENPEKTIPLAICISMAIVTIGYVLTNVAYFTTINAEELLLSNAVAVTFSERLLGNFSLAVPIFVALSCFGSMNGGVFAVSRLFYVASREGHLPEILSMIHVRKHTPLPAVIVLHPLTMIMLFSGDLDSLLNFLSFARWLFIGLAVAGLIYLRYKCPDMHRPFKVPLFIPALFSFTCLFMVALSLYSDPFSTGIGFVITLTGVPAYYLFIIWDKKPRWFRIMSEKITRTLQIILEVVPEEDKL
T1 sequence (P08195 2-529 partner): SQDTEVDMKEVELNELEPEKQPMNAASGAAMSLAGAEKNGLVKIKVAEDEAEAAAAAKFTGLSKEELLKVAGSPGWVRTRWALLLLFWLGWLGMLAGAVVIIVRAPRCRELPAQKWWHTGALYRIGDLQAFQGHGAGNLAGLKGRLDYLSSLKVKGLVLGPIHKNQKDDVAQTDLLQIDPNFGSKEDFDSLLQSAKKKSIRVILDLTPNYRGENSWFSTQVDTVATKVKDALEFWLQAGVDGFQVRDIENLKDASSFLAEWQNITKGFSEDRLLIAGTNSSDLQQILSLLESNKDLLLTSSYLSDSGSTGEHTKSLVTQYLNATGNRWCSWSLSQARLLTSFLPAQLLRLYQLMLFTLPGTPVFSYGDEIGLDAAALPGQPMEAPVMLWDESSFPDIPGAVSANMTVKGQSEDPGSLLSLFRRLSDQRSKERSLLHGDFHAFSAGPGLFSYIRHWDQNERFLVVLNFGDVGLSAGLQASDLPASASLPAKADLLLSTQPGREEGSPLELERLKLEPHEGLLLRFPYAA
The experiment is described as follows: microscale thermophoresis. As to conditions: read-out: binding affinity. For orientation: In MST a laser heats a spot of the sample, and binding alters the fluorescence response.

In the next experiment the target is T2, SLC7A13-SLC3A1 complex (Homo sapiens, UniProt Q8TCU3, K309A).
T2 construct: heterodimeric light/heavy chain transporter, dimer of heterodimers; ectopically expressed in HEK293T / HEK293 cells (Expi293 for cryo-EM); with Amino acid transporter heavy chain SLC3A1
T2 sequence (Q8TCU3 1-470 K309A): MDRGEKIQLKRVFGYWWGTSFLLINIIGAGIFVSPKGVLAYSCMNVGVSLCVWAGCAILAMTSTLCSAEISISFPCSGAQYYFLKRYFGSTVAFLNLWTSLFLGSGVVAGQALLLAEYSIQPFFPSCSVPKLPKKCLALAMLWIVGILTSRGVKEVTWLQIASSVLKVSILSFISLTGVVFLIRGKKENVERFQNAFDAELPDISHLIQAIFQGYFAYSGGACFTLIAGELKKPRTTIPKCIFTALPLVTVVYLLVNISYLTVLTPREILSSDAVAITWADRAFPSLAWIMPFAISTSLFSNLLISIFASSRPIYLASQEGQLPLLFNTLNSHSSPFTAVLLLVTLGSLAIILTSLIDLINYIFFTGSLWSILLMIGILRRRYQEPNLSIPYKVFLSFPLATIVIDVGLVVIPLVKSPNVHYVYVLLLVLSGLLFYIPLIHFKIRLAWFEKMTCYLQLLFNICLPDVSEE
T2 sequence (Q07837 1-685 partner): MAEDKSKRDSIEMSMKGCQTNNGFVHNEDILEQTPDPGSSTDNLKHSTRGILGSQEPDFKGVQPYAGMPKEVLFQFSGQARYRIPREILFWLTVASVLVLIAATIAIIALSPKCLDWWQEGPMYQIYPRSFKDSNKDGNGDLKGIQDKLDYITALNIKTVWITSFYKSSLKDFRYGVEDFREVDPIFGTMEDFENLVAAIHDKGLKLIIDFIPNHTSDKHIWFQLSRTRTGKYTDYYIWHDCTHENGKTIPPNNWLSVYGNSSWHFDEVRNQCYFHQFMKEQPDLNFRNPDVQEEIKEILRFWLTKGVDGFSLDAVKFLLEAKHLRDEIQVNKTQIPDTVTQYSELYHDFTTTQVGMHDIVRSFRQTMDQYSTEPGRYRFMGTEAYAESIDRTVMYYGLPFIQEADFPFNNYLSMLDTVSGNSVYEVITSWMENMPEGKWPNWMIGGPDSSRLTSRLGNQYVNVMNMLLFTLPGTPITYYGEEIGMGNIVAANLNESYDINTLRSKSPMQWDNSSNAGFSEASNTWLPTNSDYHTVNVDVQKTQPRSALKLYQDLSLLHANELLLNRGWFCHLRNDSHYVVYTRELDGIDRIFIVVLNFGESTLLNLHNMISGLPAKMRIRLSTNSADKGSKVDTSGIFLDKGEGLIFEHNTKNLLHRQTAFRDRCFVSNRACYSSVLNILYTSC
Description: [2H]-cystine uptake, isotope tracking. The experiment is classed as cell-based. As to conditions: HEK293 cells transfected with SLC7A13 and SLC3A1; labelled compound.

As for `N[C@@H](CSSC[C@H](N)C(=O)O)C(=O)O` [cystine], the Kd on SLC7A11-SLC3A2 complex was determined as 15.6 ± 7.04 µM. On SLC7A13-SLC3A1 complex, the cystine uptake result is “mutation in any of the seven SLC7A13-specific residues to alanine significantly reduced SLC7A13’s transporter activities”.
